Data from patent publication US20020182749A1, “Sample evaporative control” (ACLARA BioSciences, Inc., priority 1999, published 2002).
Read-outs that look alike come from different tables or passages of the source. Blank lines part the entries; values can stand above or below the compound they belong to.

Legend:
alkaline phosphatase [1] = assay: competitive inhibition assay, alkaline phosphatase with AutoPhos substrate; type: biochemical
Description: The next study evaluated the system using a competitive inhibition assay, 4-Nitrophenyl phosphate (PNPP) (Sigma Chemical Co., St. Louis, Mo.) was used as a non-fluorescent substrate for alkaline phosphatase (20 femtomoles) competing with the AutoPhos substrate. The channel was rinsed with AutoPhos buffer and filled with […] AutoPhos substrate. Into the sample port was introduced 100 nl of PNPP at concentrations varying from 0 to 10 mM and the fluorescent signal was determined at different reaction time points.
The channel was rinsed with AutoPhos buffer and then filled with about 10 μl of 1 mM AutoPhos substrate. 50 nl of alkaline phosphatase was then dispensed into the sample port. The amount of enzyme dispensed into the sample port increased from 31.25 attomole to 62.5 femtomoles by a factor of 2. Enzyme solutions of different concentrations were prepared in individual wells of a 96-well microtitre plate. Fluorescence was excited at 480 nm±20 nm and emission collected at 520±20 nm. The signals were recorded at different time points, 0, 5, 10, 15, up to 35 minutes.
The next assay was a competitive inhibition assay using the following protocol: 4-Nitrophenyl phosphate (PNPP) was used as a non-fluorescent substrate for competing for alkaline phosphatase with AutoPhos substrate. After rinsing the channels with AutoPhos buffer, the channel was filled with 1 mM AutoPhos substrate. 100 nl of PNPP was dispensed at different concentrations ranging form 0 to 60 mM. The fluorescent signal was measured at different reaction time points. The fluorescent signal as a function of different inhibitor concentrations is tabulated as following.

alkaline phosphatase [2] = assay: alkaline phosphatase inhibition study on capillary electrophoresis card, FDP substrate; type: biochemical; conditions: 1.3 mU/ml alkaline phosphatase, 3.33 μM FDP, increasing PNPP
Description: The experimental procedure was as follows: the assay well is covered by tape. 5 μl of buffer was added to the reservoirs. 500 nl of the fluorescein or assay mixture was pipetted into the assay well. For the alkaline phosphatase assay, enzyme and substrate with or without inhibitor was mixed in a tube and then 500 nl of the assay mixture was pipetted into the assay well. The detection was performed at 7 mm distance from the injector. The particular conditions for each determination are set forth with the figure.
FIG. 17 illustrates the alkaline phosphatase activity for the different incubation times. As shown in the electropherograms, two product peaks (the first peak is fluorescein mono phosphate and the 2nd peak is fluorescein) are well separated from each other. Additionally, the use of longer incubation time results in more conversion of FDP (fluorescein di-phosphate as a substrate) to the FMP (fluorescein mono-phosphate) and finally to fluorescein. FIG. 18 depicts a linear calibration curve for the alkaline phosphatase using the card. For the inhibition study, PNPP which is a non-fluorescent substrate for the alkaline phosphatase and competes with FDP which is a fluorescent substrate for the enzyme, is added to the assay mixture at a number of different concentrations.

rhodamine-streptavidin = rhodamine-streptavidin (Streptomyces avidinii, UniProt P22629); assay: FRET binding inhibition, fluorescein-biotin / rhodamine-streptavidin, read at 600 nm; conditions: fluorescein-biotin 50 μM, rhodamine-streptavidin 25 μM, varying biotin
Description: In another series of studies binding assays were performed using fluorescence resonance energy transfer. The procedure employed is as follows. The channel was rinsed and filled with 25 μl of rhodamine labeled streptavidin and 100 nl of fluorescein labeled biotin dispensed in the sample port. The concentration of the antigen varied from 0 to 100 μM by 2-fold dilutions. The signal detection system was as described, except that emission was detected at 600±20 nm. The energy transfer increased corresponding to the increase in antigen. The study was repeated varying the amount of labeled streptavidin while keeping the biotin-fluorescein at 25 μM. The background FRET signal contributed by rhodamine-streptavidin alone was substantially negligible, when the concentration of rhodamine-streptavidin was greater than about 2 μM. The following tables provide the results for the two studies.
In the next study, the effect of inhibitor on the observed signal was investigated. Fluorescein-biotin was maintained at 50 μM and rhodamine-streptavidin at 25 μM. the signal was read at 600±20 nm at varying concentrations of biotin as a binding inhibitor, with 100 nl of the binding inhibitor being added to the sample port.

[3] = target: T1, rhodamine-labeled streptavidin (Streptomyces avidinii, UniProt P22629); assay: inhibition of antigen-receptor binding, fluorescein-biotin / rhodamine-labeled streptavidin, read at 520 nm
T1 construct: purchased Molecular Probe
Description: In the next study, the channel was filled with varying concentrations of biotin in the range of 0 to 5 μM and 100 nl of rhodamine-labeled streptavidin (625 nM) followed by 100 nl of 1.0 μM fluorescein-biotin added to the sample port. After incubating for 60 min., the signal was detected at 520±20 nm. The results are reported as fraction inhibition. The following tables provide the results.
Using the above reagents and protocol, an inhibition assay was performed. The protocol was to fill the channel with 0, 30, 60, 180, 240, 500, 600, 1000, 5000 […] of biotin, respectively, followed by dispensing 100 nl of rhodamine labeled receptor into the sample port. After dispensing 100 nl of 1.0 μM fluorescein labeled antigen into the sample port, the reaction mixture was incubated for 60 minutes. The fluorescence was recorded by exciting at 480±20 nm and reading the emission at 520 nm±20 nm As the inhibitor concentration increased, the fluorescence intensity increased, indicating an increased inhibition. The increase in the fluorescent signal as a function of inhibitor concentration was converted to the percentage of inhibition.

CYP1A2 = CYP1A2 (Homo sapiens, UniProt P05177); assay: in vitro
Description: B: Inhibition in CYP450 1A2 Assay:
Make 500 M CEC substrate for 1A2.
For each of the dilutions of furafylline make Buffer Mix:
Add 5 μl of the buffer mix to both of the side wells of the channels. Because the solution contains Pluronic F68, the solution in the middle assay well rises to the top. Dilute CYP1A2 enzyme 2:1 with water.
Add 300 nl of diluted enzyme to assay (middle) well.
Incubate at 37° C. for 35 minutes.
Take RFU readings using Molecular Devices F-max plate reader. F-max settings: Filter pair 390/460; Int.20 ms; speed 10.

alkaline phosphatase [4] = assay: alkaline phosphatase inhibition in device ports, fluorescein diphosphate substrate; type: biochemical; conditions: 30 nl 0.1 nM enzyme
Text: The upper plate is about 1 mm in height and the lower plate is also about 1 mm in height. The port for introducing solutions is 1 mm in diameter and about 900 to 950 μm in height, while the channel substantially extends the remaining length of the upper sheet. The channel was varied from about 0.2 mm to 3.0 mm in width, where the interface between the port or well and the channel varied, with either the port or the channel determining the area of interface. The reservoirs have a diameter of about 2 mm. The channels were treated with 2N sodium hydroxide for 5 mins. using a vacuum pump to ensure that the basic solution extends through the channels and reservoirs. The ports or wells appear to be unaffected by this treatment, so that the channels and reservoirs have a hydrophilic surface, while the ports have a hydrophobic surface. One or more of the ports are used in each of the studies. Common to each of the experiments is to fill the device with 10 μl of 25 μM fluorescein diphosphate in 50 mM Tris buffer (pH 10.0) added to each of the inlet reservoirs, after prewetting the device.
In the next study, the effect of enzyme inhibitor was investigated. The channel was 1 mm in width. […] The fluorescence development is monitored with a CCD camera. Fluorescence is substantially confined to the ports and the fluorescent signal is related to the concentration of inhibitor introduced into the port.

[5] = read-out: Fraction of Inhibition

CYP1A2, sequence (P05177 whole entry): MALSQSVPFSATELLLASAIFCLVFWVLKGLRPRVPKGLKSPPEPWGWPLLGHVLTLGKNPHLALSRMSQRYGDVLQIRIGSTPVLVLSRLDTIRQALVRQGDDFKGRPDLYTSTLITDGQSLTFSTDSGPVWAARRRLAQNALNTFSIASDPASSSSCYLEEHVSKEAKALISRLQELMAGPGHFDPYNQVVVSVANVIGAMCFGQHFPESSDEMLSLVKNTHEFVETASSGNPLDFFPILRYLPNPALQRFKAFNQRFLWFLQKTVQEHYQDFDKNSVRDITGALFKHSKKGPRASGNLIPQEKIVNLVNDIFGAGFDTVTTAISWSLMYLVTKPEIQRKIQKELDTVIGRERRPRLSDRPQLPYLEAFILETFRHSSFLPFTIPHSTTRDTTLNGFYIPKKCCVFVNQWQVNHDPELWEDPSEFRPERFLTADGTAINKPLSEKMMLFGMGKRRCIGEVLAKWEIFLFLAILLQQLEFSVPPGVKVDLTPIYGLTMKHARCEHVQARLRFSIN

SMILES: O=[N+]([O-])c1ccc(OP(=O)(O)O)cc1 [PNPP, 4-Nitrophenyl phosphate]
- Fluorescent Signal (alkaline phosphatase [1]; Inhibitor conc. 0.001 mM): 4.5 ×103
- Fluorescent Signal (alkaline phosphatase [1]; Inhibitor conc. 0.0025 mM): 4.0 ×103
- Fluorescent Signal (alkaline phosphatase [1]; Inhibitor conc. 0.005 mM): 4.0 ×103
- Fluorescent Signal (alkaline phosphatase [1]; Inhibitor conc. 0.01 mM): 3.5 ×103
- Fluorescent Signal (alkaline phosphatase [1]; Inhibitor conc. 0.02 mM): 2.6 ×103
- Fluorescent Signal (alkaline phosphatase [1]; Inhibitor conc. 0.3125 mM): 2.0 ×103
- Fluorescent Signal (alkaline phosphatase [1]; Inhibitor conc. 0.625 mM): 1.6 ×103
- Fluorescent Signal (alkaline phosphatase [1]; Inhibitor conc. 1.25 mM): 1.6 ×103
- Fluorescent Signal (alkaline phosphatase [1]; Inhibitor conc. 5 mM): 1.6 ×103
- Fluorescent Signal (alkaline phosphatase [1]; Inhibitor conc. 10 mM): 1.5 ×103
- Fluorescence Signal (alkaline phosphatase [1]; [Inhibitor] 0.001 mM): 4527 RFU
- Fluorescence Signal (alkaline phosphatase [1]; [Inhibitor] 0.0025 mM): 4000 RFU
- Fluorescence Signal (alkaline phosphatase [1]; [Inhibitor] 0.005 mM): 4000 RFU
- Fluorescence Signal (alkaline phosphatase [1]; [Inhibitor] 0.01 mM): 3500 RFU
- Fluorescence Signal (alkaline phosphatase [1]; [Inhibitor] 0.02 mM): 2600 RFU
- Fluorescence Signal (alkaline phosphatase [1]; [Inhibitor] 0.3125 mM): 2000 RFU
- Fluorescence Signal (alkaline phosphatase [1]; [Inhibitor] 0.625 mM): 1600 RFU
- Fluorescence Signal (alkaline phosphatase [1]; [Inhibitor] 1.25 mM): 1600 RFU
- Fluorescence Signal (alkaline phosphatase [1]; [Inhibitor] 5 mM): 1600 RFU
- Fluorescence Signal (alkaline phosphatase [1]; [Inhibitor] 10 mM): 1500 RFU
- Fluorescence Signal (alkaline phosphatase [1]; [Inhibitor] 60 mM): 750 RFU
- effect on FDP alkaline phosphatase activity (alkaline phosphatase [2]): reduction of FDP alkaline phosphates activity

SMILES: O=C(O)CCCC[C@@H]1SC[C@@H]2NC(=O)N[C@@H]21 [biotin, D(+)-Biotin]
- energy transfer (FRET signal at 600 nm) (rhodamine-streptavidin): decreased with increase of binding inhibitor
- inhibition at 0.03 µM ([3]; read-out: % of Inhibition): 3.85%
- inhibition at 0.06 µM ([3]; read-out: % of Inhibition): 3.1%
- inhibition at 0.18 µM ([3]; read-out: % of Inhibition): 5%
- inhibition at 0.24 µM ([3]; read-out: % of Inhibition): 5.14%
- inhibition at 0.5 µM ([3]; read-out: % of Inhibition): 22.4%
- inhibition at 0.6 µM ([3]; read-out: % of Inhibition): 36.6%
- inhibition at 1 µM ([3]; read-out: % of Inhibition): 95%
- inhibition at 5 µM ([3]; read-out: % of Inhibition): 100%
- inhibition at 0.03 µM [3, 5]: 3.85%
- inhibition at 0.06 µM [3, 5]: 3.1%
- inhibition at 0.18 µM [3, 5]: 5%
- inhibition at 0.24 µM [3, 5]: 5.14%
- inhibition at 0.5 µM [3, 5]: 22.4%
- inhibition at 0.6 µM [3, 5]: 36.6%
- inhibition at 1 µM [3, 5]: 95%
- inhibition at 5 µM [3, 5]: 100%

- inhibition at 35 min, 0.133 µM (CYP1A2): 2%
- inhibition at 35 min, 0.665 µM (CYP1A2): 31%
- inhibition at 35 min, 1.33 µM (CYP1A2): 64%
- inhibition at 35 min, 6.65 µM (CYP1A2): 72%
- inhibition at 35 min, 13.3 µM (CYP1A2): 75%
- inhibition at 35 min, 66.5 µM (CYP1A2): 77%
- inhibition at 35 min, 133 µM (CYP1A2): 78%
SMILES: Cc1nc2c([nH]1)c(=O)n(C)c(=O)n2Cc1ccco1 [furafylline]

SMILES: Cc1ncc(COP(=O)(O)O)c(C=O)c1O [pyridoxal phosphate]
- fluorescence development in port (alkaline phosphatase [4]; 30 nl of 25 μM inhibitor): only moderately inhibited
- fluorescence development in port (alkaline phosphatase [4]; 30 nl of 250 μM inhibitor, at 30 mins): still very faint
